The results in this text go back to patent publication US7211269B2, “Cosmetic or dermatological use of peptides for promoting adhesion between skin cells” (Societe d' Extraction de Principes Actifs S.A., priority 2001, dated 2007).

A short description of series [1]: Stability of the peptide by HPLC at various temperatures. It counts as physicochemical. The note with it: 10^-4 M. The protocol:
(§1) The Peptide (Gly-Pro-Gln)2-NH2 (SEQ ID NO: 2) was analyzed with a concentration of 10^-4 M by HPLC on a column of the C18 type, and with a linear gradient water/TFA 0.1%—acetonitril/TFA 0.1%.

The nature of series [2]: Stability of the peptide in culture medium removed from human fibroblasts and keratinocytes (released degradation enzymes), HPLC. It counts as in vitro ADME. The note with it: medium from human fibroblasts and keratinocytes cultivated 24 hours at 37° C.; after 24 hours with peptide. As to the method:
as §1
(§2) Human fibroblasts and keratinocytes were cultivated during 24 hours at 37° C. and 5% of CO2. For this period, the cells will release many degradation enzymes in the culture medium. Thereafter, the culture medium is removed to be put in the presence of the peptide.

Series [3] deals with fibroblasts and keratinocytes in culture. Briefly: Peptide applied to fibroblasts and keratinocytes in culture, HPLC analysis of the culture medium. It counts as cell-based, human. As to the method: as §2
A test is carried out by applying the peptide to the fibroblasts and to the keratinocytes in culture.
This assumption is then consolidated by the tests of effectiveness exposed in the […]

Another series relates to keratinocytes. Briefly: Adhesion of keratinocytes to pre-treated 96 wells micro-plates (MTT, OD reading). It counts as cell-based. The protocol:
The study is carried out in 96 wells micro-plates on keratinocytes cultured in an incubator at 37° C. and 5% of CO2. The wells of these plates are pre-treated, for 12 hours, in different ways; four conditions have been realized: • Condition A: negative control, not containing peptide; • Condition B: incubated with various peptides, made up from 3 to 25 amino acids, with a concentration of 35 ppm; • Condition C: incubated with collagen of the type I with a concentration of 60 ppm; • Condition D: incubated with the peptide of sequence (Gly-Pro-Gln)2-NH2 (SEQ ID NO: 2) to a concentration of 5 ppm.
After 3 hours of contact with the keratinocytes, the wells are completely filled with medium, hermetically closed, turned over and agitated on a three-dimensional agitator during 20 minutes. Then the plates are emptied and the remaining medium is aspired. Then, 100 μl of MTT with 1 mg/ml are added by wells and are left for 3 hours at 37° C. and 5% CO2. The solution is finally withdrawn, then 100 μl of DMSO is added. A reading of the OD is made at 560 nm against 630 nm.
The OD is proportional to the quantity of viable cells, i.e. which adhered to the micro-plates.

Where no end group is shown, it is not given here.

As to GPQGPQ-NH2 [(Gly-Pro-Gln)2-NH2], the “decomposition of peptide (HPLC)” value in series [1] (after 24 hours at 25° C., 37° C. and 60° C.) is “no decomposition”. Further, in series [1] (after 8 days at 25° C.), the “peptide degradation (HPLC)” value is given as “no peptide degradation”. In series [2], the “degradation of the peptide in cell-conditioned culture medium” value is listed as “almost no degradation”. Also, the “peptide concentration in the culture medium” value in series [3] is “decreases quickly”. Further, the “cell adhesion (in words)” value with keratinocytes (5 ppm, after 3 hours of contact with the keratinocytes, compared with collagen of the type I at 60 ppm) is “good cell adhesion, similar to that of the collagen of the type I”. In the series with keratinocytes (Condition D: wells pre-treated 12 hours with 5 ppm, 3 hours of contact with keratinocytes, OD 560 nm against 630 nm), the “O.D. (proportional to quantity of viable adhered cells)” value is listed as 0.620.
